Laboratory results as given in the NIST ThermoML archive (doi:10.1021/je4004542).
Where “and” joins values, the source holds several entries; their conditions need not be identical. Equal values may be shown once.

Conditions: for mass density: Liquid, isochoric method; for surface tension liquid-gas: Ring tensiometer

CC(F)(F)CC(F)(F)F [1,1,1,3,3-pentafluorobutane]
Conditions	mass density [kg/m3]
237.49 K, 3052.4 kPa	1382.79
238.27 K, 4040.1 kPa	1382.71
239.08 K, 5074 kPa	1382.22
239.08 K, 5081.7 kPa	1382.63
243.12 K, 10185 kPa	1382.22
247.08 K, 15188 kPa	1381.81
247.43 K, 956.6 kPa	1361.21
248.25 K, 1931.8 kPa	1361.13
249.22 K, 3081.2 kPa	1361.03
250.2 K, 4243.7 kPa	1360.94
250.92 K, 19991 kPa	1381.43
250.93 K, 5088.8 kPa	1360.86
255 K, 25056 kPa	1381.02
255.26 K, 10152 kPa	1360.44
258.99 K, 29998 kPa	1380.62
259.5 K, 15102 kPa	1360.02
260.21 K, 1298.1 kPa	1336.72
261.05 K, 2152.9 kPa	1336.64
261.98 K, 3278.8 kPa	1336.55
262.73 K, 4030.2 kPa	1336.48
262.97 K, 34873 kPa	1380.23
263.72 K, 19989 kPa	1359.61
263.74 K, 5132.2 kPa	1336.38
267.12 K, 39916 kPa	1379.82
268.05 K, 24964 kPa	1359.2
268.32 K, 10033 kPa	1335.95
272.35 K, 29861 kPa	1358.79
273.08 K, 15145 kPa	1335.5
273.72 K, 1076.8 kPa	1309.97
274.73 K, 2060 kPa	1309.88
275.63 K, 2942.2 kPa	1309.8
276.61 K, 3921.9 kPa	1309.71
276.83 K, 34914 kPa	1358.36
277.65 K, 4903.9 kPa	1309.61
277.66 K, 19995 kPa	1335.08
281.43 K, 40068 kPa	1357.92
282.34 K, 24894 kPa	1334.64
282.69 K, 10162 kPa	1310.01
287.06 K, 29792 kPa	1334.21
287.75 K, 1242 kPa	1280.22
287.79 K, 15107 kPa	1309.56
288.9 K, 2019.2 kPa	1280.13
290.22 K, 3193 kPa	1280.01
291.35 K, 4070.9 kPa	1279.92
292.09 K, 35022 kPa	1333.75
292.96 K, 5455.1 kPa	1279.78
292.96 K, 20092 kPa	1309.09
296.9 K, 39956 kPa	1333.31
297.78 K, 24667 kPa	1308.67
298.16 K, 10021 kPa	1279.33
298.57 K, 1157.4 kPa	1258.72
299.69 K, 2006.3 kPa	1258.62
301.02 K, 3084.3 kPa	1258.51
302.24 K, 4081.3 kPa	1258.41
303.22 K, 29830 kPa	1308.18
303.47 K, 5080.2 kPa	1258.31
303.85 K, 15147 kPa	1278.84
308.65 K, 34947 kPa	1307.7
309.5 K, 20037 kPa	1278.36
309.51 K, 9974.6 kPa	1257.8
309.96 K, 1066.8 kPa	1234.65
311.31 K, 2069.7 kPa	1234.54
312.57 K, 3017.8 kPa	1234.43
313.89 K, 4006.1 kPa	1234.33
314.06 K, 40001 kPa	1307.23
315.23 K, 5013.4 kPa	1234.22
315.28 K, 25013 kPa	1277.86
315.8 K, 15053 kPa	1257.28
321.09 K, 29987 kPa	1277.37
322.04 K, 20055 kPa	1256.76
322.05 K, 10082 kPa	1233.67
322.3 K, 1278.8 kPa	1207.34
323.48 K, 1919.7 kPa	1207.25
325.25 K, 3125.1 kPa	1207.12
326.62 K, 4057.4 kPa	1207.01
326.99 K, 34967 kPa	1276.87
327.9 K, 4926.1 kPa	1206.91
328.32 K, 25047 kPa	1256.24
328.8 K, 15073 kPa	1233.12
333.06 K, 40085 kPa	1276.36
334.62 K, 30028 kPa	1255.72
335.52 K, 1037.9 kPa	1175.56
335.52 K, 10079 kPa	1206.32
335.52 K, 20025 kPa	1232.59
337.15 K, 2014.4 kPa	1175.44
338.81 K, 3050.5 kPa	1175.32
340.39 K, 4011 kPa	1175.2
341.51 K, 35426 kPa	1255.16
342.03 K, 5008.9 kPa	1175.08
342.36 K, 25012 kPa	1232.04
343.05 K, 15153 kPa	1205.73
347.07 K, 39768 kPa	1254.7
353.15 K, 11756 kPa	1174.25
353.15 K, 21912 kPa	1204.96
353.15 K, 32850 kPa	1231.18

Conditions	surface tension liquid-gas
261.8 K	19.87 mN/m
261.94 K	19.66 mN/m
268.05 K	19.19 mN/m
268.09 K	19.01 mN/m
273.05 K	18.56 mN/m and 18.41 mN/m
277.76 K	18.08 mN/m and 17.98 mN/m
282.88 K	17.57 mN/m
282.98 K	17.42 mN/m
288.32 K	17.05 mN/m
288.35 K	16.88 mN/m
293.51 K	16.3 mN/m
293.54 K	16.29 mN/m
297.79 K	15.81 mN/m
297.86 K	15.92 mN/m
302.48 K	15.41 mN/m
302.55 K	15.38 mN/m
308.11 K	14.66 mN/m
308.31 K	14.65 mN/m

COC(F)(F)C(F)(F)C(F)(F)F [heptafluoropropyl methyl ether]
Conditions	mass density [kg/m3]
209.16 K, 1147.7 kPa	1630.6
215.36 K, 9581.3 kPa	1629.81
219.53 K, 15297 kPa	1629.29
220.04 K, 1236.5 kPa	1604.5
223 K, 19918 kPa	1628.87
223.03 K, 4963.4 kPa	1604.13
227.03 K, 9963.9 kPa	1603.65
231.15 K, 15085 kPa	1603.16
231.6 K, 910.5 kPa	1576.15
232.59 K, 2030.9 kPa	1576.04
233.44 K, 3013 kPa	1575.94
234.26 K, 3948.9 kPa	1575.84
235.13 K, 20005 kPa	1602.69
235.25 K, 5067.3 kPa	1575.72
239.34 K, 25172 kPa	1602.2
239.68 K, 10109 kPa	1575.21
243.19 K, 29834 kPa	1601.75
244.03 K, 15038 kPa	1574.72
244.63 K, 1009.9 kPa	1544.86
245.59 K, 1998.3 kPa	1544.75
246.51 K, 2962.6 kPa	1544.65
247.39 K, 3900.7 kPa	1544.55
247.5 K, 35024 kPa	1601.26
248.47 K, 20022 kPa	1574.22
248.53 K, 5046.1 kPa	1544.43
251.72 K, 40059 kPa	1600.78
252.99 K, 25061 kPa	1573.71
253.35 K, 10014 kPa	1543.89
257.43 K, 29986 kPa	1573.22
258.16 K, 14929 kPa	1543.37
258.74 K, 1019.7 kPa	1509.93
259.75 K, 1914.3 kPa	1509.82
260.88 K, 2987.6 kPa	1509.7
261.92 K, 3946.9 kPa	1509.59
262 K, 34997 kPa	1572.72
263.02 K, 19886 kPa	1542.85
263.07 K, 5031.9 kPa	1509.47
266.61 K, 40003 kPa	1572.21
267.97 K, 24863 kPa	1542.32
268.54 K, 10046 kPa	1508.89
273.04 K, 29941 kPa	1541.78
273.95 K, 14959 kPa	1508.34
274.52 K, 994.4 kPa	1470.55
275.72 K, 1967.2 kPa	1470.43
276.99 K, 3007.5 kPa	1470.3
278.09 K, 34925 kPa	1541.25
278.24 K, 4016.2 kPa	1470.18
279.44 K, 4996 kPa	1470.06
279.44 K, 19959 kPa	1507.77
283.23 K, 39964 kPa	1540.71
284.96 K, 24913 kPa	1507.21
285.69 K, 10030 kPa	1469.44
285.95 K, 1083.6 kPa	1440.86
287.33 K, 2026 kPa	1440.73
288.68 K, 3021.9 kPa	1440.6
289.89 K, 3919.7 kPa	1440.48
290.57 K, 29908 kPa	1506.65
291 K, 4729.9 kPa	1440.38
291.9 K, 15010 kPa	1468.83
296.23 K, 34913 kPa	1506.08
298.15 K, 9994.4 kPa	1439.7
298.15 K, 19997 kPa	1468.22
298.45 K, 987.1 kPa	1407.52
300.45 K, 2316.3 kPa	1407.33
301.51 K, 3015.6 kPa	1407.24
302.03 K, 40008 kPa	1505.49
303.04 K, 4032 kPa	1407.09
304.36 K, 4907.1 kPa	1406.97
304.43 K, 24980 kPa	1467.62
305.45 K, 15319 kPa	1439.01
310.78 K, 29953 kPa	1467.01
312.11 K, 10022 kPa	1406.27
312.12 K, 1009.6 kPa	1369.41
312.57 K, 20469 kPa	1438.34
313.79 K, 1997.3 kPa	1369.27
315.49 K, 2985.1 kPa	1369.12
317.16 K, 3966.3 kPa	1368.97
317.19 K, 34932 kPa	1466.39
318.7 K, 4864.6 kPa	1368.84
319.58 K, 25523 kPa	1437.69
319.65 K, 14861 kPa	1405.59
323.78 K, 40025 kPa	1465.77
326.44 K, 30424 kPa	1437.05
327.49 K, 1098.2 kPa	1324.67
327.49 K, 10016 kPa	1368.08
327.51 K, 19990 kPa	1404.89
329.49 K, 2043 kPa	1324.5
331.48 K, 3053.3 kPa	1324.34
333.43 K, 4045.4 kPa	1324.18
333.47 K, 35408 kPa	1436.41
335.24 K, 25016 kPa	1404.19
335.37 K, 5030.2 kPa	1324.02
335.65 K, 14779 kPa	1367.37
340.74 K, 40506 kPa	1435.74
342.96 K, 29980 kPa	1403.51
344.67 K, 20018 kPa	1366.6
345.22 K, 10048 kPa	1323.21
353.15 K, 14072 kPa	1322.56
353.15 K, 24901 kPa	1365.87
353.15 K, 36576 kPa	1402.6

Conditions	surface tension liquid-gas [mN/m]
261.81 K	15.99
261.89 K	15.89
267.86 K	15.39
267.87 K	15.34
272.93 K	14.86
272.95 K	14.85
277.8 K	14.35
277.82 K	14.4
282.63 K	13.7
282.77 K	13.93
287.73 K	13.15
287.83 K	13.47
292.56 K	13.04
297.67 K	12.54
